What was measured:
Assay type in all cases: in vivo
Phakopsora pachyrhizi = assay: Test A: Asian soybean rust control on soybean seedlings; details: sprayed to run-off on soybean seedlings, inoculated the following day, 100 = 100% disease control, 0 = no control
In short: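 Compounds in acetone/water (50/50) with 250 ppm PEG400 were sprayed to run-off on soybean seedlings, which were inoculated with P. pachyrhizi spores the next day. Plants were held in saturated atmosphere at 22° C for 24 h, then 8 days at 22° C, before visual rating (0–100% disease control vs controls).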

[1] = tested on: Puccinia recondita f. sp. tritici; assay: Test C: wheat leaf rust control on wheat seedlings; details: sprayed to run-off on wheat seedlings, inoculated the following day, 100 = 100% disease control, 0 = no control
In short: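 Wheat seedlings were sprayed to run-off with compound suspension (ppm, acetone/water with 250 ppm PEG400), then inoculated with Puccinia recondita f. sp. tritici spores the next day. Plants were held 24 h in saturated atmosphere at 20 °C, then 6 days in a 20 °C growth chamber. Disease control is rated 0-100% relative to untreated controls.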

Zymoseptoria tritici = assay: Test B: wheat leaf blotch control on wheat seedlings; details: sprayed to run-off on wheat seedlings, inoculated the following day, 100 = 100% disease control, 0 = no control
[2] = 250 ppm (incl. values marked * = tested at 250 ppm)

SMILES | Test A disease control rating (Phakopsora pachyrhizi; 250 ppm) [%] | Test C disease control rating ([1]; 250 ppm) [%] | Test B disease control rating (Zymoseptoria tritici; [2]) | Test A disease control rating (Phakopsora pachyrhizi; 260 ppm) [%] | Test C disease control rating ([1]; 260 ppm) [%] | Test B disease control rating (Zymoseptoria tritici; 260 ppm) [%] | further results
C#CCNC(=O)OC(c1ccc(-c2noc(C(F)(F)F)n2)cc1)c1cccc(F)c1 (stereo not drawn) [Compound 135] | 100 | 100 | 88% | – | – | – | –
O=C(NCc1ccccc1)OCc1ccc(-c2noc(C(F)(F)F)n2)cc1 [Compound 13] | – | – | – | 100 | 100 | 36 | –
CCNC(=O)OCc1cccc(-c2noc(C(F)(F)F)n2)c1 [Compound 95] | 99 | 100 | 3% | – | – | – | –
CCNC(=O)OCc1ccc(-c2noc(C(F)(F)F)n2)s1 [Compound 39] | – | – | 93* % | – | – | – | Test A disease control rating (Phakopsora pachyrhizi; 10 ppm): 96%; Test C disease control rating ([1]; 10 ppm): 95%
CCNC(=O)OCCCn1cc(-c2noc(C(F)(F)F)n2)cn1 [Compound 18] | – | – | 50* % | – | – | – | pest or weed control at 50 ppm (Phakopsora pachyrhizi; Phakopsora pachyrhizi, 216 h, 50 ppm, read-out: Test A disease control rating): 38%; pest or weed control at 50 ppm ([1]; Puccinia recondita, 168 h, 50 ppm, read-out: Test C disease control rating): 0%
CNC(=O)OCc1ccc(-c2noc(C(F)(F)F)n2)cc1 [Compound 9] | – | – | – | 100 | 100 | 94 | –
CC(C)NC(=O)OCc1ccc(-c2noc(C(F)(F)F)n2)cc1 [Compound 3] | 100 | 100 | 73% | – | – | – | –
CNC(=O)OCc1ccc(-c2noc(C(F)(F)F)n2)s1 [Compound 38] | – | – | 80* % | – | – | – | Test A disease control rating (Phakopsora pachyrhizi; 10 ppm): 94%; Test C disease control rating ([1]; 10 ppm): 96%
CCOC(=O)CNC(=O)OCc1ccc(-c2noc(C(F)(F)F)n2)cc1 [Compound 4] | – | – | – | 100 | 100 | 46 | –

Reference: patent publication US11540518B2, “Fungicidal oxadiazoles” (FMC Corporation, priority 2017, dated 2023)
